The record followed here is patent US10683290B2, “Tricyclic compounds as anticancer agents” (BRISTOL-MYERS SQUIBB COMPANY, priority 2015, dated 2020).

In the first assay the target is BRD4 (Homo sapiens, UniProt O60885). Briefly: biochemical. The assay is classed as binding. Particulars: one of the FRET assays described; read-out: FRET BRD4 IC50.
`[2H]C([2H])([2H])c1nnn(C)c1-c1ccc2c3ncc(C(C)(C)O)cc3n(C(c3ncccc3F)C3CCOCC3)c2c1F` (single isomer, unassigned) [Example 85, 2-{6-Fluoro-5-[(3-fluoropyridin-2-yl)(oxan-4-yl)methyl]-7-[4-(^2H3)methyl-1-methyl-1H-1,2,3-triazol-5-yl]-5H-pyrido[3,2-b]indol-3-yl}propan-2-ol]: the IC50 (commonly the concentration needed to halve the response being measured) was below 5 nM.

For `Cc1nnn(C)c1-c1cc(Cl)c2c3ncc(C(C)(C)O)cc3n([C@H](c3ccccc3)C3CCOCC3)c2c1` [Example 13, 2-[9-Chloro-7-(dimethyl-1H-1,2,3-triazol-5-yl)-5-[(S)-oxan-4-yl(phenyl)methyl]-5H-pyrido[3,2-b]indol-3-yl]propan-2-ol], the IC50 was below 1 nM.

As for `[2H]C([2H])([2H])c1nnn(C)c1-c1cc2c(cc1F)c1ncc(C(C)(C)O)cc1n2C(CCOC)c1ccccc1` (single isomer, unassigned) [Example 63, 2-[8-fluoro-5-(3-methoxy-1-phenylpropyl)-7-[4-(^2H3)methyl-1-methyl-1H-1,2,3-triazol-5-yl]-5H-pyrido[3,2-b]indol-3-yl]propan-2-ol], the IC50 was below 5 nM.

Take `[2H]C([2H])([2H])c1nnn(C)c1-c1cc2c(cc1Cl)c1ncc(C(C)(C)O)cc1n2C(c1ncccc1F)C1CCOCC1` (single isomer, unassigned) [Example 75, 2-{8-Chloro-5-[(3-fluoropyridin-2-yl)(oxan-4-yl)methyl]-7-[4-(^2H3)methyl-1-methyl-1H-1,2,3-triazol-5-yl]-5H-pyrido[3,2-b]indol-3-yl}propan-2-ol]: the IC50 is below 1500 nM.

Consider `[2H]C([2H])([2H])c1nnn(C)c1-c1ccc2c3ncc(C(C)(C)O)cc3n(C(c3ncccc3F)C3CCOCC3)c2c1` (single isomer, unassigned) [Example 72, 2-{5-[(3-Fluoropyridin-2-yl)(oxan-4-yl)methyl]-7-[4-(^2H3)methyl-1-methyl-1H-1,2,3-triazol-5-yl]-5H-pyrido[3,2-b]indol-3-yl}propan-2-ol], for which the IC50 was below 1 nM.

In the case of `[2H]C([2H])([2H])c1nnn(C)c1-c1cc2c(cc1F)c1ncc(C(C)(C)O)cc1n2C(c1cc(OC)ccn1)C1CCOCC1` (single isomer, unassigned) [Example 50, 2-{8-fluoro-5-[(4-methoxypyridin-2-yl)(oxan-4-yl)methyl]-7-[4-(^2H3)methyl-1-methyl-1H-1,2,3-triazol-5-yl]-5H-pyrido[3,2-b]indol-3-yl}propan-2-ol], the IC50 is below 5 nM.

`[2H]C([2H])([2H])c1nnn(C)c1-c1cc2c(cc1F)c1ncc(C(C)(C)O)cc1n2[C@H](c1ccccc1)C1CCOCC1` [Example 32, 2-{8-Fluoro-7-[4-(^2H3)methyl-1-methyl-1H-1,2,3-triazol-5-yl]-5-[(S)-(oxan-4-yl)(phenyl)methyl]-5H-pyrido[3,2-b]indol-3-yl}propan-2-ol]: the IC50 is below 1 nM.

The same assay, now with this note: read-out: FRET BRD4 IC50.
For `[2H]C([2H])([2H])c1nnn(C)c1-c1ccc2c3ncc(C(C)(C)O)cc3n([C@H](c3ccccc3)C3CCOCC3)c2c1` [Example 16, 2-{7-[4-(^2H3)Methyl-1-methyl-1H-1,2,3-triazol-5-yl]-5-[(S)-oxan-4-yl(phenyl)methyl]-5H-pyrido[3,2-b]indol-3-yl}propan-2-ol], the IC50 was below 5 nM.
